Results taken from the supplement of paper PMC12463676, “Small-molecule dissolution of stress granules by redox modulation benefits ALS models” (Nature Chemical Biology, 2025).

How the values were obtained:
lipoamide = compound: NC(=O)CCCCC1CCSS1 [lipoamide]; test: thermal stability z-score vs DMSO; higher = more thermally stabilized by treatment; conditions: HeLa, lipoamide concentration 100 µM
Method: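 Cellular thermal proteome profiling in HeLa cells. Cells were treated with 100 µM lipoamide for 1 h, with or without 1 mM arsenate for a further 1 h, then heated to ten temperatures (37-66.3 °C), and soluble protein was quantified by TMT mass spectrometry relative to 0.1% DMSO controls. The thermal stability score (sum of log2 fold changes minus the abundance score) was transformed to a z-score; mean of n = 3 experiments.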

potassium arsenate = compound: O=[As]([O-])(O)O.[K+] [potassium arsenate]; test: as above; conditions: HeLa; arsenate concentration 1 mM
Method: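 Cellular thermal proteome profiling in HeLa cells treated with 1 mM arsenate for 1 h (DMSO pretreatment), heated to ten temperatures (37-66.3 °C). Soluble protein was quantified by TMT mass spectrometry relative to DMSO controls; the thermal stability score was transformed to a z-score; mean of n = 3 experiments.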

[1] = arsenate co-treatment: 1 mM arsenate 1 h
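Also: each temperature applied for 3 min, abundance score taken as mean log2 fold change at the two lowest temperatures, z-score obtained by mean subtraction and division by SD.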

Sequence of UniProt O60927 (O60927 whole entry): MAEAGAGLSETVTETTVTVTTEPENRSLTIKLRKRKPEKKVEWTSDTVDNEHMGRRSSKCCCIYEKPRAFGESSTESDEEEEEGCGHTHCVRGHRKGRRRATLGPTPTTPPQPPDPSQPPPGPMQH
Sequence of UniProt O95881 (O95881 whole entry): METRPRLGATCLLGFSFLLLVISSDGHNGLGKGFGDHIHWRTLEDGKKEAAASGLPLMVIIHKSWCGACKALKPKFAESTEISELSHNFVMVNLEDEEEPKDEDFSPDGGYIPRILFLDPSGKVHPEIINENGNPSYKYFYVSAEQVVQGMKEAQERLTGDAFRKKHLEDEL
Sequence of UniProt Q9NZC3 (Q9NZC3 whole entry): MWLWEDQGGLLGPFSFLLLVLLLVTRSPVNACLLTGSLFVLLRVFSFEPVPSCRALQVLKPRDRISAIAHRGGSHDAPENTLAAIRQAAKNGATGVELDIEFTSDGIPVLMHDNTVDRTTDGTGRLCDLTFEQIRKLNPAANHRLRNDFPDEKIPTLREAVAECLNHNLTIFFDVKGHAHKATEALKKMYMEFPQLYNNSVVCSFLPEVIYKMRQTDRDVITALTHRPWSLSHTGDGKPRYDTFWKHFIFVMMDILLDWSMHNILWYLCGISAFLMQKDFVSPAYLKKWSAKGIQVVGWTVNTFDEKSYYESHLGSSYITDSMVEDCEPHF
Sequence of UniProt Q16342 (Q16342 whole entry): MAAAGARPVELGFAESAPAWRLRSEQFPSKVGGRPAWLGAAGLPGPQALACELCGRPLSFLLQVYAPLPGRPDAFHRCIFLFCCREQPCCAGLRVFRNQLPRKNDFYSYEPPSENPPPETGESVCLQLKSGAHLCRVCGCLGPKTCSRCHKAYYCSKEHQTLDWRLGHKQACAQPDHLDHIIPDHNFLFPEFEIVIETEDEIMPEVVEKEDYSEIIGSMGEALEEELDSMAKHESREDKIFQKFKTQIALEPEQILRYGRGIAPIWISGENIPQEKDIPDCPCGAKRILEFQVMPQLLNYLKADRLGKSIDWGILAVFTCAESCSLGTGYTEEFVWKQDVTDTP
Sequence of UniProt Q96CW1 (Q96CW1 whole entry): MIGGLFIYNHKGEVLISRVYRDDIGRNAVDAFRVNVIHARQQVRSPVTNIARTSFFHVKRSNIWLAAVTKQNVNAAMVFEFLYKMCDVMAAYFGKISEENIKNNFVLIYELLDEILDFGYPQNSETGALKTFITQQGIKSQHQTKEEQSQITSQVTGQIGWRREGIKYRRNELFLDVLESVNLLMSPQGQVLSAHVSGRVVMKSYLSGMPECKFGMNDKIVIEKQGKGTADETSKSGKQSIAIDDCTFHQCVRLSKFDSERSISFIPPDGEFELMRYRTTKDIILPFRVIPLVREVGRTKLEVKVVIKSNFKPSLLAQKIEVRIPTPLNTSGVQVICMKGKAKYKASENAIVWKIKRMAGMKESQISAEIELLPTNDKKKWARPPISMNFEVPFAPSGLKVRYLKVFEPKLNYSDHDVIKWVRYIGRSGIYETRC
Sequence of UniProt Q8IYS1 (Q8IYS1 whole entry): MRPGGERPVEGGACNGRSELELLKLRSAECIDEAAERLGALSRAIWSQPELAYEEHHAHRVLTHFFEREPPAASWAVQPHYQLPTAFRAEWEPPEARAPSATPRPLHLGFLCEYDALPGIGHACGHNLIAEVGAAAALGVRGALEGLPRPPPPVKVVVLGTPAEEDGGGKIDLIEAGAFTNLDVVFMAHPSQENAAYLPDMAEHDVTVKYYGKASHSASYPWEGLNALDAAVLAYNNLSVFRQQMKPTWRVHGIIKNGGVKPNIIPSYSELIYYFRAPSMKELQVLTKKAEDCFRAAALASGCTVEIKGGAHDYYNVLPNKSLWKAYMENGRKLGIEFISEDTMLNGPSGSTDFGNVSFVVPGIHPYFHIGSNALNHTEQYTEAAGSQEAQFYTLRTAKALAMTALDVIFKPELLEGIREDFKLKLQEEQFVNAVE
Sequence of UniProt Q14157 (Q14157 whole entry): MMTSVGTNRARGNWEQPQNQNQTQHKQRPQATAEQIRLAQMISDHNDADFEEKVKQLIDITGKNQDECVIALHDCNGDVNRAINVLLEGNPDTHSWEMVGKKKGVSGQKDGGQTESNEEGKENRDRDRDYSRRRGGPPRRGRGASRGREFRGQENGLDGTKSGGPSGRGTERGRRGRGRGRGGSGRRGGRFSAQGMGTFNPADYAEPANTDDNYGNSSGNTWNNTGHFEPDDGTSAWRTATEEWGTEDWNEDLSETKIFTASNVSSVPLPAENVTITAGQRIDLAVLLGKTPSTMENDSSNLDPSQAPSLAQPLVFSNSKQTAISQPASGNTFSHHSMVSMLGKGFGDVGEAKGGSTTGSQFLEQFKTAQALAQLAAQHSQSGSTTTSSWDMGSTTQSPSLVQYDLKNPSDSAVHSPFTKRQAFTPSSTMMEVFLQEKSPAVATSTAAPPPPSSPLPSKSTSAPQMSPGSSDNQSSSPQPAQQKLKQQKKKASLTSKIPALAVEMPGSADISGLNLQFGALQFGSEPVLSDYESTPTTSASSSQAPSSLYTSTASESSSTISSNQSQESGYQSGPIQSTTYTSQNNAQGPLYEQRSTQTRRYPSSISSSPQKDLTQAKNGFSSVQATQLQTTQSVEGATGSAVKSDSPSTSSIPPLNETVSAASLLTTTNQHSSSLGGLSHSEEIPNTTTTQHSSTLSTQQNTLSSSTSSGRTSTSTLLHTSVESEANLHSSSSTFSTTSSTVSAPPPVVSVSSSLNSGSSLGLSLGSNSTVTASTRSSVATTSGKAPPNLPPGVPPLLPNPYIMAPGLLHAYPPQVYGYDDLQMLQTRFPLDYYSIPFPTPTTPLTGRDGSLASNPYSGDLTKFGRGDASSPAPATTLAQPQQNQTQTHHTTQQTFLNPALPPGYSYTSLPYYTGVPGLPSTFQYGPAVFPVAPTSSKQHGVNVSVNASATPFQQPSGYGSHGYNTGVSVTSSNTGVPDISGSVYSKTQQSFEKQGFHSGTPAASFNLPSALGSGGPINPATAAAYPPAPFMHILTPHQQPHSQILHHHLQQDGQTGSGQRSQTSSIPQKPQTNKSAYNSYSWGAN
Sequence of UniProt Q8WX92 (Q8WX92 whole entry): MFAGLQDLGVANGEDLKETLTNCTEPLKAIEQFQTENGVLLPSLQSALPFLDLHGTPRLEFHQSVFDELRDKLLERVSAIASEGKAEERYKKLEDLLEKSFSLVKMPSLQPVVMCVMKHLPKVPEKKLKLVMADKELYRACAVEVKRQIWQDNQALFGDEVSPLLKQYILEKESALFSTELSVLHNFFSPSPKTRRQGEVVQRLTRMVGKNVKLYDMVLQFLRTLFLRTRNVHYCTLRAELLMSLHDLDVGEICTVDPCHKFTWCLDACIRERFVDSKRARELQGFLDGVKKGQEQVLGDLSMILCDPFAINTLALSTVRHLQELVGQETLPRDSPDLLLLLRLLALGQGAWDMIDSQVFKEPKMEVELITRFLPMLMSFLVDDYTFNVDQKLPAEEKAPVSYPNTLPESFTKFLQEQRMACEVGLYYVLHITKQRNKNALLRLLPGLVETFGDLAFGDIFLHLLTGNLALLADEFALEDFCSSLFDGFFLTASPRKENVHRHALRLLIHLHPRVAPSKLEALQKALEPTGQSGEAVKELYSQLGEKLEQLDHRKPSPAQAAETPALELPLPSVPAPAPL
Sequence of UniProt Q96I59 (Q96I59 whole entry): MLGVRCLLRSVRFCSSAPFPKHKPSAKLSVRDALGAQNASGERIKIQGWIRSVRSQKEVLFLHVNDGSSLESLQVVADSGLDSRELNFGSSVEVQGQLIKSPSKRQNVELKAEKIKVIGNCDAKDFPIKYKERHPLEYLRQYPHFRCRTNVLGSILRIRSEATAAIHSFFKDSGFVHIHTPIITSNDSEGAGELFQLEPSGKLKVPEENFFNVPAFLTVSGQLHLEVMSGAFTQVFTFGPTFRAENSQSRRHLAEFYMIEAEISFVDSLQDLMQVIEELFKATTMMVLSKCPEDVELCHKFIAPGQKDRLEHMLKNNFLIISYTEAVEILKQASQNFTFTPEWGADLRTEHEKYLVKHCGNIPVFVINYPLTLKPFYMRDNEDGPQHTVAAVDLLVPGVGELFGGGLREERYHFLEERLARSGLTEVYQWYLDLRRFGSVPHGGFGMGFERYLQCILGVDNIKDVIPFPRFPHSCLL
Sequence of UniProt Q9Y5X3 (Q9Y5X3 whole entry): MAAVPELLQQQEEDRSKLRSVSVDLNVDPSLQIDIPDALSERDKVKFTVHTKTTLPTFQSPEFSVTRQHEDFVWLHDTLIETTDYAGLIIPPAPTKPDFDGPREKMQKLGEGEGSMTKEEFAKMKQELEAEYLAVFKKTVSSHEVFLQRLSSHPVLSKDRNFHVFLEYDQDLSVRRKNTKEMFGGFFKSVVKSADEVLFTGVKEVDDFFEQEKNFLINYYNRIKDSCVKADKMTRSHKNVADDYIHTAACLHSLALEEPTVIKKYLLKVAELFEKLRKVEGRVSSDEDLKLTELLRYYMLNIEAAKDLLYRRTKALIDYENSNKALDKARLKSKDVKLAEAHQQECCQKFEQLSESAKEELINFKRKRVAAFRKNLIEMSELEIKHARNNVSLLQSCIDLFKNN
Sequence of UniProt Q8NCA5 (Q8NCA5 whole entry): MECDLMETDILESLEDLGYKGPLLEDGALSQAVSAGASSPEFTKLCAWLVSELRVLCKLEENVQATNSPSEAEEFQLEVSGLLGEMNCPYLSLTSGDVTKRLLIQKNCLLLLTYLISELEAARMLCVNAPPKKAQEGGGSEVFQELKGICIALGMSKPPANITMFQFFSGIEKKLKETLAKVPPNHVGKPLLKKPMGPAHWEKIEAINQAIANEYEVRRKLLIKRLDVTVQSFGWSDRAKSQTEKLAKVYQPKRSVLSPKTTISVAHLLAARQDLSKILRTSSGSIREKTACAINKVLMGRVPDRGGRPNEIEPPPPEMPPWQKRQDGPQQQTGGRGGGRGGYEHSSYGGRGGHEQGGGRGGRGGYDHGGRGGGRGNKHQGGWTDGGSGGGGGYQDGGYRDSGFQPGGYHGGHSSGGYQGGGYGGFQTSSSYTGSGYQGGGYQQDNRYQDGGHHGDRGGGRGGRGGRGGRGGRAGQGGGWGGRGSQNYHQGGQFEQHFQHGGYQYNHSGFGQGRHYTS

Target	thermal stability z-score (lipoamide; [1])	thermal stability z-score (lipoamide; arsenate co-treatment: none)	thermal stability z-score (potassium arsenate)
SMOC1 (UniProt Q9H4F8)	-0.587	-0.458	-1.55
PDCD2 (UniProt Q16342)	-0.0711	-0.181	-0.371
KCNK1 (UniProt O00180)	-1.31	0.686	-1.18
MAEA (UniProt Q7L5Y9)	-0.402	-0.993	-0.343
SDHAF4 (UniProt Q5VUM1)	0.0401	-0.258	-1.53
AP3M1 (UniProt Q9Y2T2)	0.0419	0.0205	0.418
NME4 (UniProt O00746)	-1.03	-1.25	-1.86
PSMG4 (UniProt Q5JS54)	-1.42	-1.53	-1.38
BRD4 (UniProt O60885)	0.496	0.462	-0.724
USMG5 (UniProt Q96IX5)	1.21	0.486	0.215
SULT1A4|SULT1A3	-0.787	0.186	1.16
PPP1R11 (UniProt O60927)	0.0148	-0.832	-0.187
SUMF1 (UniProt Q8NBK3)	-1	-0.419	-0.194
GDE1 (UniProt Q9NZC3)	-0.631	-0.947	-1.38
SNX5 (UniProt Q9Y5X3)	-0.497	-0.998	-0.458
PRPF40A (UniProt O75400)	-0.0187	0.00497	0.00775
CCT4 (UniProt P50991)	-0.0959	-0.205	-0.223
ATP7A (UniProt Q04656)	-0.29	-0.175	-0.674
PNP (UniProt P00491)	0.446	0.411	0.178
LNPEP (UniProt Q9UIQ6)	0.328	0.227	0.249
GHITM (UniProt Q9H3K2)	-0.161	-0.193	-0.0999
TRIM4 (UniProt Q9C037)	-0.218	0.0313	-0.143
GNPDA1 (UniProt P46926)	0.699	0.687	0.272
NDUFA2 (UniProt O43678)	-0.29	-0.00199	0.396
ARHGAP17 (UniProt Q68EM7)	0.0634	0.493	0.874
ARHGAP18 (UniProt Q8N392)	1.13	1.59	1.21
MALSU1 (UniProt Q96EH3)	-1.47	-1.5	-1.01
POLR3K (UniProt Q9Y2Y1)	0.542	0.567	-3.08

Target	thermal stability z-score (lipoamide; [1])	thermal stability z-score (lipoamide; arsenate co-treatment: none)	thermal stability z-score (potassium arsenate)
NSUN2 (UniProt Q08J23)	-1.4	-0.353	-0.192
DLG5 (UniProt Q8TDM6)	0.227	-0.0304	0.0056
NELFB (UniProt Q8WX92)	-0.286	0.576	-0.0666
PTER (UniProt Q96BW5)	-0.116	-0.966	-0.311
TXNDC12 (UniProt O95881)	-1.11	-1.37	0.744
TLE4 (UniProt Q04727)	-0.201	0.36	0.289
EPHA2 (UniProt P29317)	-0.528	-0.029	-0.211
LMNB1 (UniProt P20700)	2.11	-0.38	0.742
MIEF1	-0.243	-0.035	-0.198
UFC1 (UniProt Q9Y3C8)	0.984	0.773	0.281
PM20D2 (UniProt Q8IYS1)	0.623	1.29	1.81
DNAJC1 (UniProt Q96KC8)	-0.436	-0.516	-0.725
STK38 (UniProt Q15208)	-0.703	-0.424	-0.182
RPUSD3 (UniProt Q6P087)	0.12	0.0857	0.085
RAB5C (UniProt P51148)	0.345	0.119	0.552
FARP2 (UniProt O94887)	-0.32	-0.266	-0.235
EIF5A (UniProt P63241)	-0.138	0.0123	-0.005
HEATR5B (UniProt Q9P2D3)	-1.25	-0.638	-0.105
FAM98A (UniProt Q8NCA5)	-0.444	-0.673	-1.6
AP2M1 (UniProt Q96CW1)	0.48	0.0269	0.0231
C5ORF22 (UniProt Q49AR2)	-0.259	0.324	1.13
NARS2 (UniProt Q96I59)	-0.454	0.256	-0.19
SEPHS1 (UniProt P49903)	0.189	0.065	0.00514
FAM162A (UniProt Q96A26)	0.884	0.302	-0.244
PAGE1 (UniProt O75459)	0.147	0.51	-0.636
UBAP2L (UniProt Q14157)	0.549	0.413	-0.116
FBLN1 (UniProt P23142)	-2.93	-2.25	1.29
